From patent US20210255168A1, “A METHOD OF PRECISION CANCER THERAPY” (KING FAISAL SPECIALIST HOSPITAL & RESEARCH CENTRE, priority 2018, published 2021)

Columns and labels:
[1] = test system: TNF-α-ARE luciferase reporter in MDA-MB-231 cells; test: Post-transcriptional ARE luciferase reporter assay (kinase inhibitor library screen); format: cell-based; settings: 0.5, 2 and 5 μM, ARE and non-ARE reporters
[2] = test system: TNF-α-ARE luciferase reporter in MDA-MB-231 cells; test: as above; format: cell-based; settings: for reduction of ARE-reporter activity (in words): PK inhibitor library
Source text: Reporters were designed to be driven by the ribosomal protein subunit 30 (RPS30) promoter. The promoter was amplified using PCR with primers specific to the flanking region of the RPS30 promoter sequence. The gene structure of RPS30 was obtained from the Ribosomal Protein Database (http://ribosome.med.miyazaki-u.ac.jp). The forward and reverse primers included the restriction sites, EcoR V and SalI sites. Amplified DNA fragments were then resolved in 1.2%-1.5% agarose gel and the amplicon bands were excised, purified and cloned into the promoterless plasmid. TNF-α 3′-UTR and TNF-α ARE were used to study the role of AU-rich elements in the action of PKs inhibitors. The AU-rich sequence that comprised 250 bases from TNF-α 3′UTR (1200-1450 bp, NM_00059) was amplified by PCR using the forward primer 5′-[…]-3′ (SEQ ID NO:1) and the reverse primer 5′-[…]-3′ (SEQ ID NO:2). The TNF-α-ARE sequence was made by annealing two synthetic complementary oligonucleotides of 70 bases that correspond to TNF-α ARE. The control reporter was constructed to have the basic structure of post-transcriptional reporter except 3′UTR which lack the AU-rich element sequence like this of bovine growth hormone. Any ARE reiterations or variations can be used, with minimal sequence is AUUUA, preferably, WW(AUUUA)WW, where W=A or U. They can be also repeated as an overall, e.g., AUUUAUUA, anywhere from 0 to 10 repeats as example.
Selleckchem Kinase Inhibitor Library that includes a selection of 378 pharmacologically active inhibitors of a number of protein kinases was purchased from Selleckchem. (Houston, Tex., USA). This library is a collection of 378 kinase inhibitors some of which have been approved by the FDA. Each compound is provided as a pre-dissolved 10 mM dimethyl sulfoxide (DMSO) solution as a 96 well format tube (100 μL). The compounds were diluted by OPTI-MEM (Thermo Fisher Scientific, Waltham, Mass., USA) to a final concentration of 5 μM.
Post-transcriptional and control reporter constructs were transfected to MDA-MB-231 cells separately that were seeded in 96-well microplates at a density of 4×10^4 cells/well and incubated overnight. Using lipofectamine 2000 protocol (Invitrogen, Carlsbad, Calif., USA), the cells were transfected with 10 ng of either RPS30-luciferase-control 3′UTR or RPS30-luciferase-ARE 3′UTR reporter plasmids. After 24 h, the cells were treated with each member of protein kinase inhibitors kit for 24 h. Then, luciferase reaction was performed as prescribed by manufacture's protocol (Nano-Glo Luciferase, Promega, Madison, Wis., USA)/well. After 15 minutes, the reporters' activities were measured through the measurement of the chemiluminescence (FIG. 8) after treatment using a Zenith 3100 (Anthos Labtec, Eugendorf, Austria).
Data are presented as means±standard error of the mean (SEM). Two-sample Student's t-test was used to determine the differences between two data sets. One-way analysis of variance (ANOVA) was used to compare three or more data columns. Two-way analysis of variance was used to analyze two groups of data, each having two data columns. Analysis was performed using GraphPad Prism version 6.00 for Windows, (GraphPad Software, La Jolla Calif., USA). For high throughput screening (HTS) hit selection (protein kinase inhibitors), strictly standardized mean difference (SSMD) test was used. This statistical test measures the size of effect of each member in a group relative to the other members. It is the mean of each member divided by the standard deviation of the difference between two random values from different groups. Based on the value of SSMD, the effect of each member of the library was classified as strong (β≥5), moderate (1≤β<5), and weak (β<1). In this study, only drug with SSMD score more than or equal to 5 or less than or equal to −5, i.e. strong β, where selected in the primary screening. […]

[3] = test system: MDA-MB-231, MCF7, and SKBR3 cell lines; test: mRNA expression in breast cancer cell lines; format: cell-based; settings: MCF7, MDA-MB-231 and SKBR3; most of the cancer cell lines
Description: Cells were cultured in six-well plates and either treated with DMSO or drugs for 24 h. Total RNA was then extracted using Trizol reagent (TRI Reagent, Sigma-Aldrich, St Louis, Mo.). The cells were lysed directly on the culture dish by adding 1 ml of the TRI Reagent per 10 cm^2 surface area. Reverse transcription for preparation of cDNA was performed using 3 μg of total RNA, 150 ng random primers, 0.1 M dithiothreitol (DTT), 10 mM deoxynucleotide triphosphate (dNTP) and 200 U of SuperScript II (Invitrogen, Foster City, Calif.). The quantitative RT-QPCR was performed in multiplex in the Chroma 4 DNA Engine cycler (BioRad, Hercules, Calif., USA) using FAM-labelled TaqMan probes (Applied Biosystems, Foster City, Calif., USA) for TTP (ZFP36), HuR (ELAVL1), uPA (PLAU)-CXCR4, MMP-1, MMP-13, IL-8, PLK-1 while a VIC-labelled glyceraldehyde-3-phosphate dehydrogenase (GAPDH) probe was used as the endogenous control. Samples were amplified in triplicate and quantification of relative expression was performed using the estimation of quantitation cycle (Cq) method.
PLK1 kinase, as an example of kinases involved in cancer, is over-expressed in breast cancer cell lines, including MCF7, MDA-MB-231 and SKBR3 when compared to the normal-like MCF10A (FIG. 5A). Many kinases are either over-expressed or constitutively active or hyperactive in cancer states when compared to normal cells. As example of inhibitors that are found in the precision cancer therapy screen, Volasertib and Regorafenib (VEGFR kinase inhibitor) led to reduction in the level of ARE-containing mRNA, uPA in most of the cancer cell lines. (FIG. 5B).
The present inventors further disclose that the effect of PLK-1 inhibition is consistent among different types of breast cancer including triple-negative, […], and ER-PR negative breast cancers, as shown through the actions induced by PLK-1 inhibitor volasertib on MDA-MB-231, MCF7, and SKBR3 cell lines, namely increasing the expression of TTP, decreasing the HuR level, and downregulating the TTP target uPA. […] Accordingly, the present inventor discloses that any protein kinase inhibitor which post-transcriptionally regulates expression of cancer-related genes is suitable for precision cancer therapy. Further disclosed is a method of treatment of cancer comprising administering said protein kinase inhibitor, to a patient in need thereof.

PLK-2 = PLK-2 (Homo sapiens, UniProt Q9NYY3); settings: cited from earlier work
Chain of PLK-2 (Q9NYY3 whole entry, species assumed): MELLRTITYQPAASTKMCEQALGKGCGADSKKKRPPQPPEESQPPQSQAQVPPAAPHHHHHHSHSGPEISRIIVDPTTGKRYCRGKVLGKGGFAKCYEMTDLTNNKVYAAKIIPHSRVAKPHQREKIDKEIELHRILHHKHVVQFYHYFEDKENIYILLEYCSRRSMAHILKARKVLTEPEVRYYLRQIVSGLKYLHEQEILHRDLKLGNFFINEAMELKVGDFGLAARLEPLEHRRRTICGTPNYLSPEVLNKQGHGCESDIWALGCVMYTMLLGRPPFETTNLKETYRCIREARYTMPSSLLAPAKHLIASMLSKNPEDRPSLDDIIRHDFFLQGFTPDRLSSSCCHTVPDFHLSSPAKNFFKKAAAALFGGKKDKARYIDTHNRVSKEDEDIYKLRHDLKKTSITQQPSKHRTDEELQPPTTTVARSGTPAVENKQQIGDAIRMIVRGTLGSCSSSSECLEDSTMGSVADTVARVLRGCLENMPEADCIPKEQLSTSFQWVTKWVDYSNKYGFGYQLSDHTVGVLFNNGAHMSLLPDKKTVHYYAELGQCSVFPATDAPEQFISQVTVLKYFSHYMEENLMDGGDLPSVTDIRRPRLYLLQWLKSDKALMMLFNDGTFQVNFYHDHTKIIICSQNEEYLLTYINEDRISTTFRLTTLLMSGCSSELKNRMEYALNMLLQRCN

PLK-3 = PLK-3 (Homo sapiens, UniProt Q9H4B4); settings: cited from earlier work
Chain of PLK-3 (Q9H4B4 whole entry, species assumed): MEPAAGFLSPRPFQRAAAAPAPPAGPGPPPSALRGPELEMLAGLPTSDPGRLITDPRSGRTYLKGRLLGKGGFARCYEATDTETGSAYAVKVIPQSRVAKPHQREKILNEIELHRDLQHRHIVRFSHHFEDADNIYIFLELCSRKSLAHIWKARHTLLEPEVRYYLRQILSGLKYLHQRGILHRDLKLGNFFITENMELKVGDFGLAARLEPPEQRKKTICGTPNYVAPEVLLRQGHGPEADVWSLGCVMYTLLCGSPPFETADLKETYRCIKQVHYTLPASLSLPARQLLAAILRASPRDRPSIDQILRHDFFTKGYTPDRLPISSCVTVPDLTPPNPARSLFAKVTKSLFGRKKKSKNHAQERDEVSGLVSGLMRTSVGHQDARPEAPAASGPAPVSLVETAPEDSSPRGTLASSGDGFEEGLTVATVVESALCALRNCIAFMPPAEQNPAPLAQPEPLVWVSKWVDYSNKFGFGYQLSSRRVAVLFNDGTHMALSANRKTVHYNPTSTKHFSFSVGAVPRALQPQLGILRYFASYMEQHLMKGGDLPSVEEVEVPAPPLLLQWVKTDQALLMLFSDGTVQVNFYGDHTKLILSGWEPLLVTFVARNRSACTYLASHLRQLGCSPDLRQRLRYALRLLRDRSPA

Molecule: Cc1ccc(NC(=O)c2cccc(C(C)(C)C#N)c2)cc1Nc1ccc2ncn(C)c(=O)c2c1 [AZ628]
- ARE-dependent mRNA regulation confirmed in later stages of screening compared to a non-ARE reporter [1]: confirmed to be involved in ARE-dependent mRNA regulation

Molecule: CC[C@@H]1C(=O)N(C)c2cnc(Nc3ccc(C(=O)NC4CCN(C)CC4)cc3OC)nc2N1C1CCCC1 [BI 2536]
- reduction of TNF-ARE luciferase reporter activity ([2]; primary screening, 5 μM): 35%
- reduction in percent reporter activity in the secondary screening compared to the control reporter ([2]; secondary screening, ARE vs non-ARE control reporter): 16%

Molecule: C[C@@H](Oc1cc(-n2cnc3ccc(CN4CCN(C)CC4)cc32)sc1C(N)=O)c1ccccc1C(F)(F)F [GSK461364]
- reduction of ARE-reporter activity (in words) [2]: did not reduce

Molecule: COc1ccc(S(=O)(=O)N(C(C)=O)c2ccccc2/C=C/c2cc[n+]([O-])cc2)cc1 [HMN-214]
- reduction of ARE-reporter activity (in words) [2]: did not reduce

Molecule: CN1CCN(c2ccc(OC(F)(F)F)c(Nc3ncc4c(n3)-c3c(c(C(N)=O)nn3CCO)CC4)c2)CC1 [NMS-P937]
- reduction of ARE-reporter activity (in words) [2]: did not reduce

Molecule: CNC(=O)c1cc(Oc2ccc(NC(=O)Nc3ccc(Cl)c(C(F)(F)F)c3)c(F)c2)ccn1 [Regorafenib]
- level of ARE-containing mRNA uPA in cancer cell lines [3]: reduction
- ARE-dependent mRNA regulation confirmed in later stages of screening compared to a non-ARE reporter [1]: confirmed to be involved in ARE-dependent mRNA regulation

Molecule: COc1cc(OC)c(/C=C/S(=O)(=O)Cc2ccc(OC)c(NCC(=O)O)c2)c(OC)c1 [rigosertib]
- selectivity (PLK-1) against PLK-2 (PLK-2): more than 30 fold
- activity on PLK-3 (PLK-3): no activity
- reduction of ARE-reporter activity (in words) [2]: did not reduce

Molecule: Ro3280
- reduction of ARE-reporter activity (in words) [2]: did not reduce
